# Experimental data taken from article PMC10096391, “Discovery of N,4-Di(1H-pyrazol-4-yl)pyrimidin-2-amine-Derived CDK2 Inhibitors as Potential Anticancer Agents: Design, Synthesis, and Evaluation” (Molecules, 2023).
# How the values were obtained:
# Assay type in all cases: cell-based
# [1] = tested on: Cov318 ovarian cancer cells; assay: Cell viability assay (MTT/resazurin), Cov318; conditions: read-out: Antiproliferative Activity, GI50
# Description: (§1) Cancer cell lines derived from leukemia (MV4-11 and U937), breast (MCF7 (Rb-positive) and MDA-MB-231(Rb-negative)), and ovarian (A2780, OVCAR5, OAW28, OV90, Cov318, and Cov504) cancers, and glioblastoma (U87, T98G and U251) were acquired from the cell bank at Drug Discovery and Development, University of South Australia, and cultured according to the American Type Culture Collection (ATCC) recommendation in Roswell Park Memorial Institute (RPMI)-1640, Dulbecco’s Modified Eagle’s Medium (DMEM), or Minimum Essential Media (MEM), with 10% fetal bovine serum (Sigma-Aldrich, Castle Hill, NSW, Australia) within a humidified incubator at 37 °C in the presence of 5% CO2.
# (§2) The MTT (Life Technologies, Mulgrave, VIC, Australia) and resazurin (Sigma-Aldrich) assays were used to determine the antiproliferative activities of the compounds initially at 1 µM against the cancer cell lines stated above.
# U87 glioblastoma cells = assay: Cell viability assay (MTT/resazurin), U87; conditions: read-out: Antiproliferative Activity, GI50
# Description: as §1, §2
# OVCAR5 cells = assay: Annexin V/PI apoptosis assay, OVCAR5; conditions: 48 h
# Experimental: Annexin V-fluorescein isothiocyanate (FITC) apoptosis detection kit I (consisting of a ten-time stock solution of binding buffer, FITC–annexin V, and PI staining solution) was used to determine the effect of the compounds on cancer cell survival as previously reported. Briefly, six-well plates (Sigma-Aldrich, NSW, Australia) were seeded with about 1–2 × 10^5 cells/well in 2 mL growth medium, incubated at 37 °C and 5% CO2 overnight, treated with various concentrations of the test compounds, and incubated for 48 h. The wells were collected by trypsinization, transferred into FACS tubes, washed twice with 1 × PBS, and centrifuged at 300× g for 5 min. The pellets were then suspended in 100 µL of 1 × binding buffer and incubated in the dark with 3 µL of PI and 3 µL of FITC-conjugated annexin V solutions for 15 min. Finally, 200 µL of binding buffer was added to each sample and analyzed by the CytoFLEX cytometer. The extent of apoptotic cell death was quantified as the sum of the percentages of early apoptotic cells (annexin V-positive and PI-negative) and late apoptotic cells (both annexin–V- and PI-positive) and presented graphically as a contour diagram relative to the untreated control.
# A2780 cells = assay: Cell cycle analysis by flow cytometry, A2780; conditions: A2780, 2 µM, 48 h
# Experimental: The effect of the compounds on cell cycle distribution was evaluated following a previously reported method. Briefly, six-well plates (Sigma-Aldrich, NSW, Australia) were seeded with about 1–2 × 10^5 cells/well in 2 mL growth medium, incubated at 37 °C and 5% CO2 overnight, and treated with various concentrations of the test compounds and incubated for 48 h. The wells were collected by trypsinization, transferred into fluorescence-activating cell sorting (FACS) tubes, washed with 1 × phosphate-buffered saline (1 × PBS) twice, fixed in 70% (v/v) ice-cold ethanol for 15 min, and centrifuged at 300× g for 5 min. The cell pellets were then collected, stained with 200 µL of the cell cycle solution (comprising 50.0 μg/mL PI, 0.1 mg/mL RNase A, and 0.05% Triton X-100), and incubated for 1.5 h at room temperature in the dark. Finally, the DNA content was determined by a flow cytometer (CytoFLEX) and analyzed by CytExpert 2.1 software (Beckman Coulter, Brea, CA, USA).
# U251 glioblastoma cells = assay: Cell viability assay (MTT/resazurin), U251; conditions: Homo sapiens, U-251, read-out: Antiproliferative Activity, GI50
# Description: as §1, §2
smiles,measurement,setting,value
"Cn1cc(-c2nc(Nc3cn[nH]c3)ncc2Cl)cn1 [Compound 15, 5-Chloro-4-(1-methyl-1H-pyrazol-4-yl)-N-(1H-pyrazol-4-yl)pyrimidin-2-amine]",GI50,[1],488 nM
same,GI50,U87 glioblastoma cells,560 nM
same,viability at 0.5 µM,"OVCAR5 cells; Homo sapiens, OVCAR-5, OVCAR5, 0.5 µM, read-out: Q1-LL, viable cells",67.4%
same,viability at 2 µM,"OVCAR5 cells; Homo sapiens, OVCAR-5, OVCAR5, 2 µM, read-out: Q1-LL, viable cells",57.8%
same,"apoptosis (annexin V positive, early + late)","OVCAR5 cells; OVCAR5, 0.5 µM",30%
same,"apoptosis (annexin V positive, early + late)","OVCAR5 cells; OVCAR5, 2 µM",38%
same,S-phase cells,A2780 cells,26%
same,GI50,U251 glioblastoma cells,350 nM
